The test system of this experiment is miR-155. The experiment in a line: miR-155 gene expression by RT-qPCR in UN-KC-6141 cells. Format: cell-based, mouse. The following applies: API 40 μM, 24 h, vs DMSO vehicle. As for the experimental part: MiR-155 is known to be overexpressed in different cancers, including PC^21, 23. The inventors first assessed whether apigenin could modulate the expression of miR-155 in PC cells. Murine PC cell lines Panc02 and UN-KC-6141 as well as the human PC cell line MiaPaCa-2 were treated with API (40 μM) or DMSO vehicle for 24 h and the expression of miR-155 was examined using RT-qPCR assay. […] Since API is known to inhibit the growth of cancer cells, including PC cells^39-43, 47-50, the same PC cell lines were treated with API (40 μM) or DMSO (vehicle) for 24 h and examined cell viability using MTT assay. […] Moreover, Panc02 and UN-KC-6141 cells were then treated with API at a dose dependent concentration (10, 20, 30, 40, 50 μM) and detected apoptosis using flow cytometry (Annexin V and PI).
miR-155 is implicated in the development of pancreatic tumors from pancreatic intraepithelial neoplasia (PanIN) lesions, and is overexpressed in PC^23. The inventors examined whether the depletion of miR-155 modulated PC viability. Murine and human PC cell lines were transfected with miR-155 inhibitor (i.e., MMU-MIR-155-5P/HSA-MIR-155-5P) and scrambled miRNA at a concentration of 100 nM for 24 h and cell viability determined using an MTT assay. The expression of miR-155 was examined using an RT-qPCR assay as well. […]
(In general: Real-time PCR tracks product formation cycle by cycle.)

Consider `O=c1cc(-c2ccc(O)cc2)oc2cc(O)cc(O)c12` [API, 40,5,7-Trihydroxyflavone, 5,7-Dihydroxy-2-(4-hydroxyphenyl)-4-benzopyrone], for which the miR-155 gene expression entry was “significantly suppressed”.

These data come from patent US20240415804A1, “METHOD OF TREATING PANCREATIC CANCER” (University of South Florida, priority 2022, published 2024).
